Usually IC50 stands for the concentration that inhibits the measured activity by half.

Counter-ions that a name gives are not always drawn. Like-named read-outs stand apart in the source and are kept apart here. Where only a bound is given, the exact number is not on record here.

Among the data in patent US20250387400A1, “TYK2 INHIBITORS” (BIOGEN MA INC., priority 2022, published 2025) are IC50 values, retold here.

What all share (assay type): biochemical
The target of assay [1] is T1, catalytic kinase (JH1) domain of human TYK2 (Homo sapiens, UniProt P29597).
T1 construct: recombinantly generated catalytic kinase (also known as JH1) domain of human JAK1, JAK2, JAK3 and TYK2
T1 sequence (P29597 897-1176 limits assumed): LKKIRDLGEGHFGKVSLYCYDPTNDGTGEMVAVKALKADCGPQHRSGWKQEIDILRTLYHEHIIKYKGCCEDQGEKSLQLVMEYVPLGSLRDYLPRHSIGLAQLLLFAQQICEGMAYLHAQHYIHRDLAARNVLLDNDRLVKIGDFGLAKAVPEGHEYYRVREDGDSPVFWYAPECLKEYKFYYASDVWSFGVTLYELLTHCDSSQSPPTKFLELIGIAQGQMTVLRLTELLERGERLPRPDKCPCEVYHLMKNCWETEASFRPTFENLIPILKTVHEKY
Description: ADP-Glo kinase assay, TYK2 kinase domain. The protocol:
(§1) As summarized in Table 3 below, compounds of the disclosure were assessed for their ability to inhibit TYK2, JAK1, JAK2, and JAK3 activity.
(§2) The kinase activity of recombinantly generated catalytic kinase (also known as JH1) domain of human JAK1, JAK2, JAK3 and TYK2 were evaluated in a plate-based assay using the ADP-Glo™ Kinase Assay platform. […] The reactions proceed for 100 minutes and the catalytic activity is quantified by first depleting the unused ATP, converting the hydrolyzed ADP into ATP to generate luminescence in a luciferase reaction; which is the basis of the ADP-Glo platform. Compounds are tested at either 10 μM or 1 μM top concentration, 11 points of 3-fold dilution. The data is normalized and the percent activity versus log concentration of compound is fitted with a 4-parameter logistic model to generate a curve and an IC50 value.
In general terms: ADP-Glo turns the ADP formed in a reaction into a luminescent signal.

The target in assay [2] is T2, catalytic kinase (JH1) domain of human JAK1 (Homo sapiens, UniProt P23458).
T2 construct: 4 nM of recombinant JAK1 kinase domain is used to phosphorylate
T2 sequence (P23458 875-1153 limits assumed): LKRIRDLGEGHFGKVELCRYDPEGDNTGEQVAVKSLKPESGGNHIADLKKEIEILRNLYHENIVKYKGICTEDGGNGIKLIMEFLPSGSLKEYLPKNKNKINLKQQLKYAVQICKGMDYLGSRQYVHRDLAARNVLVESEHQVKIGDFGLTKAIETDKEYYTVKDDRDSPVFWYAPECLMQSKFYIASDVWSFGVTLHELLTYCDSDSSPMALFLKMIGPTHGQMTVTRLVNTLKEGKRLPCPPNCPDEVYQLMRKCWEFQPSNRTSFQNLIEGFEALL
Description: ADP-Glo kinase assay, JAK1 kinase domain. The protocol: as §1, §2

In assay [3] the target is T3, catalytic kinase (JH1) domain of human JAK3 (Homo sapiens, UniProt P52333).
T3 construct: Catalytic activities of recombinant JAK2, JAK3 and TYK2 kinase domain
T3 sequence (P52333 822-1111 limits assumed): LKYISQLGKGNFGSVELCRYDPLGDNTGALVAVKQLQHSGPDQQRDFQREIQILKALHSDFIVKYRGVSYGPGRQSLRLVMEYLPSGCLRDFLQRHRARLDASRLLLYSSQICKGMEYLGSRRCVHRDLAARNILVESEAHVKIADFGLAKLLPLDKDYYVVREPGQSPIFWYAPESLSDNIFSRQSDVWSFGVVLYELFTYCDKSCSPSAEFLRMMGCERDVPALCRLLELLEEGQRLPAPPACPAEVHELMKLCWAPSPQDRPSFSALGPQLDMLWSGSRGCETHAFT
Description: ADP-Glo kinase assay, JAK3 kinase domain. How it is done: as §1, §2

In assay [4] the target is T4, catalytic kinase (JH1) domain of human JAK2 (Homo sapiens, UniProt O60674).
T4 construct: Catalytic activities of recombinant JAK2, JAK3 and TYK2 kinase domain
T4 sequence (O60674 849-1124 limits assumed): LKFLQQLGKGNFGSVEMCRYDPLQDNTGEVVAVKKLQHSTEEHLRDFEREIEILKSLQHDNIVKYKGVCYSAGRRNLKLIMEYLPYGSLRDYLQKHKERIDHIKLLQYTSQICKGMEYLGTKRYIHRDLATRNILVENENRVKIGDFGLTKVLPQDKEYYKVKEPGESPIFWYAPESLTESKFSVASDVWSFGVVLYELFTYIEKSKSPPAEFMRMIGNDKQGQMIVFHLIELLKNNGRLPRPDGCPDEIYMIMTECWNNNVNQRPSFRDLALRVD
As to the kind of experiment: ADP-Glo kinase assay, JAK2 kinase domain. The protocol:
as §1, §2

Setting [5] is: 2 nM recombinant TYK2 kinase domain, 50 μM JAK3-974 peptide, 10 μM ATP, 100 minutes, read-out: TYK2 biochem IC50 (nM) Mean.
[6] abbreviates: 4 nM recombinant JAK1 kinase domain, 50 μM JAK3-342 peptide, 35 μM ATP, 100 minutes, read-out: JAK1 biochem IC50 (nM) Mean.
The mark [7] stands for this setting: 0.3 nM recombinant JAK3 kinase domain, 50 μM JAK3-974 peptide, 4 μM ATP, 100 minutes, read-out: JAK3 biochem IC50 (nM) Mean.
The mark [8] stands for this setting: 0.2 nM recombinant JAK2 kinase domain, 50 μM JAK3-974 peptide, 15 μM ATP, 100 minutes, read-out: JAK2 biochem IC50 (nM) Mean.

Consider `Cn1cc(-c2nc3c(N4C[C@H]5CC[C@@H](C4)N5C4CC(C(F)F)C4)ccnc3[nH]2)cn1` (stereo partly drawn) [Example 10, 7-((1R,5S)-8-(3-(difluoromethyl)cyclobutyl)-3,8-diazabicyclo[3.2.1]octan-3-yl)-2-(1-methyl-1H-pyrazol-4-yl)-3H-imidazo[4,5-b]pyridine], for which the concentration for half-maximal inhibition (IC50) in assay [1] (setting [5]) is 226 nM; in assay [2] (setting [6]), 340 nM; in assay [3] (setting [7]), 1350 nM; in assay [4] (setting [8]), 180 nM.
As for `Cn1cc(-c2nc3c(N4CC5CCC(C4)N5C4CNC4)ccnc3[nH]2)cn1` [Example 11, 7-(8-(azetidin-3-yl)-3,8-diazabicyclo[3.2.1]octan-3-yl)-2-(1-methyl-1H-pyrazol-4-yl)-3H-imidazo[4,5-b]pyridine hydrochloride], the IC50 in assay [1] (setting [5]) was 330 nM; in assay [2] (setting [6]) it was 970 nM; in assay [3] (setting [7]) it was over 5000 nM; in assay [4] (setting [8]), 635 nM.
On to `CN1CC(N2C3CCC2CN(c2ccnc4[nH]c(-c5cnn(C)c5)nc24)C3)C1` [Example 12, 2-(1-methyl-1H-pyrazol-4-yl)-7-(8-(1-methylazetidin-3-yl)-3,8-diazabicyclo[3.2.1]octan-3-yl)-3H-imidazo[4,5-b]pyridine trifluoroacetate], for which the IC50 was 580 nM in assay [1] (setting [5]), 2850 nM in assay [2] (setting [6]), over 10000 nM in assay [3] (setting [7]) and 2300 nM in assay [4] (setting [8]).
Take `COc1cc(-c2cc3c(N4CC5CCC(C4)N5C4CC(C#N)C4)ccnc3[nH]2)ccn1` (stereo not drawn) [Example 13, 3-(3-(2-(2-methoxypyridin-4-yl)-1H-pyrrolo[2,3-b]pyridin-4-yl)-3,8-diazabicyclo[3.2.1]octan-8-yl)cyclobutane-1-carbonitrile]: the IC50 turned out to be 4.05 nM in assay [1], 7.9 nM in assay [2], 82 nM in assay [3] and 14 nM in assay [4].
For `COc1cc(-c2cc3c(N4CC5CCC(C4)N5[C@H]4C[C@@H](C#N)C4)ccnc3[nH]2)ccn1` [Example 14, (1S,3s)-3-(3-(2-(2-methoxypyridin-4-yl)-1H-pyrrolo[2,3-b]pyridin-4-yl)-3,8-diazabicyclo[3.2.1]octan-8-yl)cyclobutane-1-carbonitrile], in that order: 21.5 nM, 205 nM, 1800 nM and 170 nM.
In the same order, the values of `COc1cc(-c2cc3c(N4CC5CCC(C4)N5[C@H]4C[C@H](C#N)C4)ccnc3[nH]2)ccn1` [Example 15, (1R,3r)-3-(3-(2-(2-methoxypyridin-4-yl)-1H-pyrrolo[2,3-b]pyridin-4-yl)-3,8-diazabicyclo[3.2.1]octan-8-yl)cyclobutane-1-carbonitrile] are 2.13 nM, 13.7 nM, 74.3 nM and 15 nM.
For `Cn1cc(-c2cc3c(N4CC5CCC(C4)N5[C@H]4C[C@@H](C#N)C4)ccnc3[nH]2)cn1` [Example 16, (1S,3s)-3-(3-(2-(1-methyl-1H-pyrazol-4-yl)-1H-pyrrolo[2,3-b]pyridin-4-yl)-3,8-diazabicyclo[3.2.1]octan-8-yl)cyclobutane-1-carbonitrile], the IC50 in assay [1] (setting [5]) was determined as 17.5 nM; in assay [2] (setting [6]), 315 nM; in assay [3] (setting [7]) it was 550 nM; in assay [4] (setting [8]), 117 nM.
For `Cn1cc(-c2cc3c(N4CC5CCC(C4)N5C4CC(C#N)C4)ccnc3[nH]2)cn1` [Example 17, (1R,3r)-3-(3-(2-(1-methyl-1H-pyrazol-4-yl)-1H-pyrrolo[2,3-b]pyridin-4-yl)-3,8-diazabicyclo[3.2.1]octan-8-yl)cyclobutane-1-carbonitrile], the IC50 in assay [1] (setting [5]) was determined as 2.8 nM; in assay [2] (setting [6]), 36.7 nM; in assay [3] (setting [7]), 67.7 nM; in assay [4] (setting [8]), 20 nM.
For `COc1cc(-c2cc3c(N4CC5CCC(C4)N5C4COC4)ccnc3[nH]2)ccn1` [Example 18, 2-(2-methoxypyridin-4-yl)-4-(8-(oxetan-3-yl)-3,8-diazabicyclo[3.2.1]octan-3-yl)-1H-pyrrolo[2,3-b]pyridine], in that order: 30.5 nM, 49.5 nM, over 1000 nM and 97 nM.
`COc1cc(-c2cc3c(N4CC5CCC(C4)N5C4CC(C(F)F)C4)ccnc3[nH]2)ccn1` (stereo not drawn) [Example 19, 4-(8-(3-(difluoromethyl)cyclobutyl)-3,8-diazabicyclo[3.2.1]octan-3-yl)-2-(2-methoxypyridin-4-yl)-1H-pyrrolo[2,3-b]pyridine]: the IC50 in assay [1] (setting [5]) is 40.5 nM; in assay [2] (setting [6]) it was 68 nM; in assay [3] (setting [7]) it was 785 nM; in assay [4] (setting [8]), 115 nM.
Regarding `Cn1cc(-c2cc3c(N4CC5CCC(C4)N5C4(CC#N)COC4)ccnn3c2)cn1` [Example 20, 2-(3-(3-(6-(1-methyl-1H-pyrazol-4-yl)pyrrolo[1,2-b]pyridazin-4-yl)-3,8-diazabicyclo[3.2.1]octan-8-yl)oxetan-3-yl)acetonitrile], the concentration for half-maximal inhibition (IC50) in assay [1] (setting [5]) worked out at 40.5 nM; in assay [2] (setting [6]), 520 nM; in assay [3] (setting [7]) it was 1400 nM; in assay [4] (setting [8]) it was 265 nM.
As to `Cn1cc(-c2cc3c(N4CC5CCC(C4)N5C4CC(O)(C(F)(F)F)C4)ccnn3c2)cn1` (stereo not drawn) [Example 22, 3-(3-(6-(1-methyl-1H-pyrazol-4-yl)pyrrolo[1,2-b]pyridazin-4-yl)-3,8-diazabicyclo[3.2.1]octan-8-yl)-1-(trifluoromethyl)cyclobutan-1-ol], the IC50 in assay [1] (setting [5]) was 305 nM; in assay [2] (setting [6]), 5200 nM; in assay [3] (setting [7]), over 10000 nM; in assay [4] (setting [8]), 1200 nM.
On to `Cn1cc(-c2cc3c(N4CC5CCC(C4)N5C4COC4)ccnn3c2)cn1` [Example 23, 6-(1-methyl-1H-pyrazol-4-yl)-4-(8-(oxetan-3-y1)-3,8-diazabicyclo[3.2.1]octan-3-yl)pyrrolo[1,2-b]pyridazine], for which the IC50 stood at 14.5 nM in assay [1] (setting [5]), 310 nM in assay [2] (setting [6]), 2150 nM in assay [3] (setting [7]) and 185 nM in assay [4] (setting [8]).
Turning to `COC1CC(N2C3CCC2CN(c2ccnn4cc(-c5cnn(C)c5)cc24)C3)C1` (stereo not drawn) [Example 24, 4-(8-(3-methoxycyclobutyl)-3,8-diazabicyclo[3.2.1]octan-3-yl)-6-(1-methyl-1H-pyrazol-4-yl)pyrrolo[1,2-b]pyridazine], the IC50 in assay [1] (setting [5]) came to 19 nM; in assay [2] (setting [6]), 230 nM; in assay [3] (setting [7]), 4250 nM; in assay [4] (setting [8]), 380 nM.
Turning to `Cn1cc(-c2cc3c(N4CC5CCC(C4)N5C4CC(O)C4)ccnn3c2)cn1` (stereo not drawn) [Example 25, 3-(3-(6-(1-methyl-1H-pyrazol-4-yl)pyrrolo[1,2-b]pyridazin-4-yl)-3,8-diazabicyclo[3.2.1]octan-8-yl)cyclobutan-1-ol], the IC50 in assay [1] (setting [5]) was 435 nM; in assay [2] (setting [6]), 6250 nM; in assay [3] (setting [7]), over 10000 nM; in assay [4] (setting [8]) it was 5050 nM.
Turning to `Cn1cc(-c2cc3c(N4CC5CCC(C4)N5C4CCC4)ccnn3c2)cn1` [Example 26, 4-(8-cyclobutyl-3,8-diazabicyclo[3.2.1]octan-3-y1)-6-(1-methyl-1H-pyrazol-4-yl)pyrrolo[1,2-b]pyridazine], the IC50 was 195 nM in assay [1], 6100 nM in assay [2], over 10000 nM in assay [3] and 3300 nM in assay [4].
On to `CO[C@H]1C[C@H](N2C3CCC2CN(c2ccnn4cc(-c5cnn(C)c5)cc24)C3)C1` [Example 29, 4-(8-((1r,3R)-3-methoxycyclobutyl)-3,8-diazabicyclo[3.2.1]octan-3-yl)-6-(1-methyl-1H-pyrazol-4-yl)pyrrolo[1,2-b]pyridazine], for which the IC50 in assay [1] (setting [5]) was 187 nM; in assay [2] (setting [6]), 6500 nM; in assay [3] (setting [7]), over 10000 nM; in assay [4] (setting [8]), 3600 nM.
For the compound `CO[C@H]1C[C@@H](N2C3CCC2CN(c2ccnn4cc(-c5cnn(C)c5)cc24)C3)C1` [Example 30, 4-(8-((1s,3S)-3-methoxycyclobutyl)-3,8-diazabicyclo[3.2.1]octan-3-yl)-6-(1-methyl-1H-pyrazol-4-yl)pyrrolo[1,2-b]pyridazine], the IC50 was 367 nM in assay [1] (setting [5]), over 10000 nM in assay [2] (setting [6]), over 10000 nM in assay [3] (setting [7]) and 4670 nM in assay [4] (setting [8]).
